Drawing on patent US20230151014A1 (Repare Therapeutics Inc., priority 2020, published 2023), this text covers IC50 for 59 molecules.

Bounds are passed on as bounds.

For orientation: IC50 means the concentration needed to halve the response being measured.

The target of the assay is T1, recombinant human Myt1 (Homo sapiens, UniProt Q99640).
T1 construct: full length PKMYT1 recombinant human protein expressed in insect cells
T1 sequence (Q99640 1-499): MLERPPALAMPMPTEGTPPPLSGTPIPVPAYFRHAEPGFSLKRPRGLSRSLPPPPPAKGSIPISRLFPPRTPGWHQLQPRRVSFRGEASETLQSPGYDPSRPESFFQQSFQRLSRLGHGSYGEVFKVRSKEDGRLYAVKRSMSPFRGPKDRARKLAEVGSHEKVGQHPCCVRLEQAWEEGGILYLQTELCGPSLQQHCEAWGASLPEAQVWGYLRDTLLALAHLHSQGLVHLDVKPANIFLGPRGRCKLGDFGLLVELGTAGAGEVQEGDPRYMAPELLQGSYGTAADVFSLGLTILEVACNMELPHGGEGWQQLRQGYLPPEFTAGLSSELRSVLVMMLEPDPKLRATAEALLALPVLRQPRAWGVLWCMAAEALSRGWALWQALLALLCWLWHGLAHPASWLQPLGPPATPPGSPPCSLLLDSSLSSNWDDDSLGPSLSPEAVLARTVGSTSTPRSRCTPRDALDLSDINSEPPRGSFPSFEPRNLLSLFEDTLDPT
Put plainly: Myt1 enzymatic assay (ADP-Glo kinase assay, IC50 and % max inhibition). To be noted: recombinant human Myt1 18 nM, ATP 10 μM. Format: biochemical. The essentials: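 Compounds (0.5% DMSO) preincubated with recombinant human Myt1 for 15 min at 22° C, then ATP added and reaction run 60 min at 30° C.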

As to `Cc1ccc(O)c(C)c1-n1c(N)c(C(N)=O)c2nc(C(N)=O)cnc21` [Compound 220, 6-amino-5-(3-hydroxy-2,6-dimethyl-phenyl)pyrrolo[2,3-b]pyrazine-2,7-dicarboxamide], the concentration for half-maximal inhibition (IC50) is less than 10 nM.

On to `Cc1ccc(O)c(C)c1-n1c(N)c(C(N)=O)c2cc(C(F)(F)F)cnc21` [Compound 221, 2-amino-1-(3-hydroxy-2,6-dimethyl-phenyl)-5-(trifluoromethyl)pyrrolo[2,3-b]pyridine-3-carboxamide], for which the half-maximal inhibitory concentration (IC50) came to 81 nM.

As to `Cc1ccc(O)c(C)c1-n1c(N)c(C(N)=O)c2ncc(C#CCC3CCOCC3)nc21` [Compound 222], the IC50 is less than 10 nM.

Turning to `Cc1ccc(O)c(C)c1-n1c(N)c(C(N)=O)c2ncc(C#CC(C)(C)NS(C)(=O)=O)nc21` [Compound 223], the 50% inhibitory concentration (IC50) came out at 15 nM.

Take `Cc1ccc(O)c(C)c1-n1c(N)c(C(N)=O)c2ncc(C#CC3CCCCO3)nc21` (centres unmarked) [Compound 224]: the IC50 came out at 13 nM.

Turning to `Cc1ccc(O)c(C)c1-n1c(N)c(C(N)=O)c2ncc(C#CC3CCOCC3)nc21` [Compound 225], the IC50 came to 34 nM.

Consider `Cc1ccc(O)c(C)c1-n1c(N)c(C(N)=O)c2ncc(C#CCN(C)C)nc21` [Compound 226], for which the IC50 was 12 nM.

Consider `Cc1ccc(O)c(C)c1-n1c(N)c(C(N)=O)c2ncc(C#Cc3ccccn3)nc21` [Compound 227], for which the 50% inhibitory concentration (IC50) was 50 nM.

Regarding `Cc1ccc(O)c(C)c1-n1c(N)c(C(N)=O)c2ncc(C#CC3CC3)nc21` [Compound 228], the IC50 was determined as 21 nM.

As for `Cc1ccc(O)c(C)c1-n1c(N)c(C(N)=O)c2ncc(C#C[C@H](C)O)nc21` [Compound 229], the IC50 was 52 nM.

For the molecule `Cc1ccc(O)c(C)c1-n1c(N)c(C(N)=O)c2ncc(C#Cc3ccccc3)nc21` [Compound 230], the IC50 amounted to 368 nM.

In the case of `Cc1ccc(O)c(C)c1-n1c(N)c(C(N)=O)c2ncc(C#CC3(O)CCOCC3)nc21` [Compound 231], the concentration for half-maximal inhibition (IC50) is less than 10 nM.

In the case of `Cc1ccc(O)c(C)c1-n1c(N)c(C(N)=O)c2ncc(C#CC3(C)COC3)nc21` [Compound 232], the IC50 was determined as 11 nM.

On to `Cc1ccc(O)c(C)c1-n1c(N)c(C(N)=O)c2ncc(C#C[C@@H]3OCC[C@@H]3Cl)nc21` [Compound 233], for which the concentration for half-maximal inhibition (IC50) turned out to be 10 nM.

`Cc1ccc(O)c(C)c1-n1c(N)c(C(N)=O)c2ncc(C#C[C@@H]3COC[C@H]3O)nc21` [Compound 234]: the IC50 turned out to be 14 nM.

For `Cc1ccc(O)c(C)c1-n1c(N)c(C(N)=O)c2ncc(C#CC3(C)CCCO3)nc21` (centres unmarked) [Compound 235], the concentration for half-maximal inhibition (IC50) came to 13 nM.

Consider `Cc1ccc(O)c(C)c1-n1c(N)c(C(N)=O)c2ncc(C#CC3(O)CCOC3)nc21` (centres unmarked) [Compound 236], for which the IC50 is 16 nM.

For `Cc1ccc(O)c(C)c1-n1c(N)c(C(N)=O)c2ncc(C#CCC3(O)CCOCC3)nc21` [Compound 237], the IC50 was found to be 19 nM.

On to `COC(C)(C)C#Cc1cnc2c(C(N)=O)c(N)n(-c3c(C)ccc(O)c3C)c2n1` [Compound 238], for which the half-maximal inhibitory concentration (IC50) came out at 10 nM.

For the molecule `Cc1ccc(O)c(C)c1-n1c(N)c(C(N)=O)c2ncc(C#CC(C)(C)O)nc21` [Compound 239], the IC50 is 15 nM.

On to `COCCOCC#Cc1cnc2c(C(N)=O)c(N)n(-c3c(C)ccc(O)c3C)c2n1` [Compound 240], for which the 50% inhibitory concentration (IC50) amounted to 191 nM.

On to `Cc1ccc(O)c(C)c1-n1c(N)c(C(N)=O)c2ncc(C#C[C@@H](C)O)nc21` [Compound 241], for which the half-inhibitory concentration (IC50) was 24 nM.

Consider `Cc1ccc(O)c(C)c1-n1c(N)c(C(N)=O)c2ncc(C#CC3(O)CCC(F)(F)CC3)nc21` [Compound 242, 6-amino-3-[2-(4,4-difluoro-1-hydroxy-cyclohexyl)ethynyl]-5-(3-hydroxy-2,6-dimethyl-phenyl)pyrrolo[2,3-b]pyrazine-7-carboxamide], for which the concentration for half-maximal inhibition (IC50) was less than 10 nM.

`Cc1ccc(O)c(C)c1-n1c(N)c(C(N)=O)c2nc(C(=O)Nc3cccnc3)cnc21` [Compound 243, 6-amino-5-(3-hydroxy-2,6-dimethyl-phenyl)-N2-(3-pyridyl)pyrrolo[2,3-b]pyrazine-2,7-dicarboxamide]: the IC50 came to 69 nM.

Regarding `CCNC(=O)c1cnc2c(n1)c(C(N)=O)c(N)n2-c1c(C)ccc(O)c1C` [Compound 244], the IC50 came out at 16 nM.

Regarding `Cc1ccc(O)c(C)c1-n1c(N)c(C(N)=O)c2nc(C(=O)NCc3ccccc3)cnc21` [Compound 245], the half-maximal inhibitory concentration (IC50) was 11 nM.

Take `CCN(CC)C(=O)c1cnc2c(n1)c(C(N)=O)c(N)n2-c1c(C)ccc(O)c1C` [Compound 246]: the half-maximal inhibitory concentration (IC50) was found to be 84 nM.

In the case of `Cc1ccc(O)c(C)c1-n1c(N)c(C(N)=O)c2nc(-c3cc4ccccc4n3C)cnc21` [Compound 247], the 50% inhibitory concentration (IC50) was 17 nM.

Turning to `Cc1ccc(O)c(C)c1-n1c(N)c(C(N)=O)c2nc(-c3nc4ccccc4s3)cnc21` [Compound 248], the IC50 is less than 10 nM.

Take `Cc1ccc(O)c(C)c1-n1c(N)c(C(N)=O)c2nc(-c3nc4ccccc4o3)cnc21` [Compound 249]: the IC50 came out at 20 nM.

As for `Cc1ccc(O)c(C)c1-n1c(N)c(C(N)=O)c2nc(-c3ccnnc3)cnc21` [Compound 250], the half-maximal inhibitory concentration (IC50) was less than 10 nM.

For `Cc1ccc(O)c(C)c1-n1c(N)c(C(N)=O)c2nc(N3CC4(COC4)C3)cnc21` [Compound 253], the 50% inhibitory concentration (IC50) worked out at 24 nM.

For `Cc1ccc(O)c(C)c1-n1c(N)c(C(N)=O)c2nc(-c3nc4ccccc4n3C)cnc21` [Compound 254], the half-inhibitory concentration (IC50) was 10 nM.

For `Cc1ccc(O)c(C)c1-n1c(N)c(C(N)=O)c2nc(-c3nc(C)c(C)o3)cnc21` [Compound 255], the IC50 was 109 nM.

Turning to `Cc1ccc(O)c(C)c1-n1c(N)c(C(N)=O)c2nc(C3CC3)c(C3CC3)nc21` [Compound 256], the IC50 came out at 50 nM.

As to `C=Cc1cnc2c(C(N)=O)c(N)n(-c3c(C)ccc(O)c3C)c2n1` [Compound 257, 6-amino-5-(3-hydroxy-2,6-dimethyl-phenyl)-3-vinyl-pyrrolo[2,3-b]pyrazine-7-carboxamide], the half-maximal inhibitory concentration (IC50) is 43 nM.

Turning to `Cc1ccc(O)c(C)c1-n1c(N)c(C(N)=O)c2nc(-c3cccc(OC4CCOCC4)n3)cnc21` [Compound 258], the IC50 came to 3130 nM.

Regarding `C=Cc1cnc2c(n1)c(C(N)=O)c(N)n2-c1c(C)ccc(O)c1C` [Compound 259], the IC50 is less than 10 nM.

With `Cc1ccc(O)c(C)c1-n1c(N)c(C(N)=O)c2nc(OC3CC3)cnc21` [Compound 260, 6-amino-2-(cyclopropoxy)-5-(3-hydroxy-2,6-dimethyl-phenyl)pyrrolo[2,3-b]pyrazine-7-carboxamide], the IC50 worked out at 27 nM.

As to `Cc1ccc(O)c(C)c1-n1c(N)c(C(N)=O)c2nc3c(nc21)CCCC3` [Compound 262], the IC50 is less than 10 nM.

Consider `Cc1ccc(O)c(C)c1-n1c(N)c(C(N)=O)c2nc(C(F)F)cnc21` [Compound 263, 6-amino-2-(difluoromethyl)-5-(3-hydroxy-2,6-dimethyl-phenyl)pyrrolo[2,3-b]pyrazine-7-carboxamide], for which the IC50 stood at 16 nM.

As for `Cc1ccc(O)c(C)c1-n1c(N)c(S(C)(=O)=O)c2nc(-c3cnccn3)cnc21` [Compound 278], the 50% inhibitory concentration (IC50) was greater than 5000 nM.

With `Cc1ccc(O)c(C)c1-n1c(N)c(C(N)=O)c2nc(C#CC3CCNC3)cnc21` (centres unmarked) [Compound 279], the 50% inhibitory concentration (IC50) is 250 nM.

With `Cc1ccc(O)c(C)c1-n1c(N)c(C(N)=O)c2nc(CCC3CCNC3)cnc21` (centres unmarked) [Compound 280], the IC50 came to 80 nM.

Take `Cc1ccc(O)cc1-n1c(N)c(C(N)=O)c2nc(OCc3ccccc3)cnc21` [Compound 281]: the IC50 came out at 784 nM.

In the case of `Cc1ccc(O)cc1-n1c(N)c(C(N)=O)c2nc(NCc3ccccc3)cnc21` [Compound 282], the IC50 was determined as 625 nM.

For the molecule `Cc1ccc(O)c(C)c1-n1c(N)c(C(N)=O)c2nc(C#CC(=O)Nc3ccc(F)cc3)cnc21` [Compound 283], the IC50 worked out at 32 nM.

`Cc1ccc(O)cc1-n1c(N)c(C(N)=O)c2nc(OCc3cccnc3)cnc21` [Compound 284]: the half-inhibitory concentration (IC50) is 238 nM.

For the molecule `Cc1cnc2c(n1)c(C(N)=O)c(N)n2-c1c(C)ccc(O)c1C` [Compound 285], the concentration for half-maximal inhibition (IC50) worked out at 11 nM.

Regarding `Cc1ccc(O)c(Br)c1-n1c(N)c(C(N)=O)c2cc(Cl)cnc21` [Compound 289], the IC50 is less than 10 nM.

On to `Cc1ccc(O)c(C)c1-n1c(N)c(C(N)=O)c2cc(-c3ccccn3)cnc21` [Compound 295], for which the half-maximal inhibitory concentration (IC50) was less than 10 nM.

Take `Cc1ccc(O)c(C)c1-n1c(N)c(C(N)=O)c2cc(N3CCCC3=O)cnc21` [Compound 298]: the IC50 was less than 10 nM.

Consider `Cc1c(O)ccc(Br)c1-n1c(N)c(C(N)=O)c2cc(Cl)cnc21` [Compound 301], for which the concentration for half-maximal inhibition (IC50) was 13 nM.

With `Cc1ccc(O)c(C)c1-n1c(N)c(C(N)=O)c2cc(C3=CCOCC3)cnc21` [Compound 304], the IC50 was less than 10 nM.

Regarding `Cc1ccc(O)c(C)c1-n1c(N)c(C(N)=O)c2cc(-c3nccs3)cnc21` [Compound 308], the concentration for half-maximal inhibition (IC50) was less than 10 nM.

Take `Cc1ccc(O)c(C)c1-n1c(N)c(C(N)=O)c2cc(S(=O)(=O)C3CC3)cnc21` [Compound 311]: the IC50 is less than 10 nM.

Consider `Cc1ccc(O)c(C)c1-n1c(N)c(C(N)=O)c2cc(C#N)cnc21` [Compound 312], for which the IC50 is less than 10 nM.

As for `Cc1ccc(O)c(C)c1-n1c(N)c(C(N)=O)c2c(C)c(Cl)cnc21` [Compound 313], the IC50 is less than 10 nM.

Regarding `Cc1ccc(O)c(C)c1-n1c(N)c(C(N)=O)c2c(Cl)c(Cl)cnc21` [Compound 316], the half-maximal inhibitory concentration (IC50) is less than 10 nM.
